What all share (assay type): cell-based
One experiment addresses T1, BRAF V600E (Homo sapiens, UniProt P15056, V600E).
T1 construct: endogenous C-terminal HiBiT fusion tag on BRAF V600E allele; endogenous in cells; host or cells: A375 clone 1F10 (CRISPR-Cas9 knock-in of the HiBiT tag; parental A375 from ATCC)
The experiment can be described thus: BRAF HiBiT degradation assay, C-terminal HiBiT-tagged BRAF V600E A375 cells (clone 1F10), Nano-Glo HiBiT Lytic assay. Conditions: for Dmax: A-375. The essentials:
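A375 cells with CRISPR knock-in C-terminal HiBiT on endogenous BRAF V600E (clone 1F10) were seeded and cultured 24 h at 37 °C, then dosed with an 11-point half-log series (1 μM to 0.01 nM, duplicate, 0.2% DMSO). Lytic HiBiT luminescence gave % protein remaining; DC50 was the fitted concentration at 50%.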
(In general: HiBiT is a short tag that completes a luciferase, so light tracks the accessible tagged protein.)

For a further experiment, the target named is T2, BRAF G466V (Homo sapiens, UniProt P15056, G466V).
T2 construct: Horizon Discovery (HCT-116 BRAF−/− cells); host or cells: HCT-116 BRAF−/− cells, clone 8, lentiviral transduction
The experiment can be described thus: BRAF HiBiT degradation assay, C-terminal HiBiT-tagged BRAF G466V overexpressed in HCT-116 BRAF−/− cells (clone 8), Nano-Glo HiBiT Lytic assay. The essentials: (§1)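 HCT-116 BRAF−/− cells stably expressing the tagged mutant were seeded at 3,000 cells/well and grown 24 h at 37 °C before an 11-point half-log series from 1 μM to 0.01 nM, run in duplicate at 0.2% DMSO. Lytic HiBiT luminescence gave % protein remaining versus DMSO controls; DC50 was the fitted concentration at 50%.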

The target of another experiment is T3, BRAF G469A (Homo sapiens, UniProt P15056, G469A).
T3 construct: Horizon Discovery (HCT-116 BRAF−/− cells); host or cells: HCT-116 BRAF−/− cells, clone 34, lentiviral transduction
The experiment can be described thus: BRAF HiBiT degradation assay, C-terminal HiBiT-tagged BRAF G469A overexpressed in HCT-116 BRAF−/− cells (clone 34), Nano-Glo HiBiT Lytic assay. The essentials: as §1

The next experiment addresses T4, BRAF D594G (Homo sapiens, UniProt P15056, D594G).
T4 construct: Horizon Discovery (HCT-116 BRAF−/− cells); host or cells: HCT-116 BRAF−/− cells, clone 63, lentiviral transduction
The experiment can be described thus: BRAF HiBiT degradation assay, C-terminal HiBiT-tagged BRAF D594G overexpressed in HCT-116 BRAF−/− cells (clone 63), Nano-Glo HiBiT Lytic assay. The essentials:
as §1

Where [1] appears, read: A375 (BRAF V600E), DC50 at 50%: fitted conc. at Y=50.
Setting [2] is: A375 (BRAF V600E), percentage protein degraded at maximal compound effect relative to DMSO.
Setting [3] is: BRAF G466V, DC50 at 50%: fitted conc. at Y=50.
The mark [4] stands for this setting: HCT-116, BRAF G466V, percentage protein degraded at maximal compound effect relative to DMSO.
Setting [5] is: Class 2, BRAF G469A, DC50 at 50%: fitted conc. at Y=50.
[6] abbreviates: HCT-116, Class 2, BRAF G469A, percentage protein degraded at maximal compound effect relative to DMSO.
The mark [7] stands for this setting: BRAF D594G, DC50 at 50%: fitted conc. at Y=50.
[8] abbreviates: HCT-116, BRAF D594G, percentage protein degraded at maximal compound effect relative to DMSO.
Where [9] appears, read: A375 (BRAF V600E, Class 1), DC50 at 50% degradation.
Where [10] appears, read: A375 (BRAF V600E, Class 1), observed Dmax, % protein degraded relative to DMSO control.
Where [11] appears, read: BRAF G466V (Class 3), HCT-116 BRAF−/− cells, DC50 at 50% degradation.
[12] abbreviates: BRAF G466V (Class 3), HCT-116 BRAF−/− cells, observed Dmax relative to DMSO control.
Where [13] appears, read: BRAF G469A (Class 2), HCT-116 BRAF−/− cells, DC50 at 50% degradation.
[14] abbreviates: BRAF G469A (Class 2), HCT-116 BRAF−/− cells, observed Dmax relative to DMSO control.
Setting [15] is: BRAF D594G (Class 3), HCT-116 BRAF−/− cells, DC50 at 50% degradation.
Setting [16] is: BRAF D594G (Class 3), HCT-116 BRAF−/− cells, observed Dmax relative to DMSO control.

Bounds are passed on as bounds.

T1 sequence (P15056 whole entry V600E, the tested form may be a part): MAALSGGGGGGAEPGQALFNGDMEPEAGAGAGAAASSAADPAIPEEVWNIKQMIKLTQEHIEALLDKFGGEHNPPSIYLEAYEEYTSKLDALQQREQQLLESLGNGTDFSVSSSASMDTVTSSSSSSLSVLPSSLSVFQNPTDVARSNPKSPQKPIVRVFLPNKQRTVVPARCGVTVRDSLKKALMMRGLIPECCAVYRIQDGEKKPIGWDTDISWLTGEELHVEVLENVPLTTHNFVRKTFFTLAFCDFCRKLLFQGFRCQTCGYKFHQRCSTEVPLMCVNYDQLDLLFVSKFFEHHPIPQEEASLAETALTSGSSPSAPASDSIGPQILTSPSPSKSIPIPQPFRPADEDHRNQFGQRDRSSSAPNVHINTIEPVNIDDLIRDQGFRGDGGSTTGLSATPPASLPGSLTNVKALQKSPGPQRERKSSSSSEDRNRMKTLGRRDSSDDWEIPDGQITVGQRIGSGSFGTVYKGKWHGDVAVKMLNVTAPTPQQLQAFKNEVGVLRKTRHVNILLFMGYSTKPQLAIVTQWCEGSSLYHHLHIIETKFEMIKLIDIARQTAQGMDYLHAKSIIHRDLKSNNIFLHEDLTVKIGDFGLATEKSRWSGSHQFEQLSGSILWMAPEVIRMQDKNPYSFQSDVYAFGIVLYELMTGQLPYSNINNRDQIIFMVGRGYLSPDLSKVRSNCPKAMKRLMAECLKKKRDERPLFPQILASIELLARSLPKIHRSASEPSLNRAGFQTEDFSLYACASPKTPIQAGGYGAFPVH
T2 sequence (P15056 whole entry G466V): as the sequence (P15056 whole entry V600E, the tested form may be a part) above, with G466V, E600V counted along it
T3 sequence (P15056 whole entry G469A): as the sequence (P15056 whole entry V600E, the tested form may be a part) above, with G469A, E600V counted along it
T4 sequence (P15056 whole entry D594G): as the sequence (P15056 whole entry V600E, the tested form may be a part) above, with D594G, E600V counted along it

Consider `CCCS(=O)(=O)Nc1cccc(-c2nc(C(C)(C)C)sc2-c2ccnc(Nc3cnn(CC4CCN(C(=O)CN5CCc6cc(C7CCC(=O)NC7=O)ccc6C5)CC4)c3)n2)c1F` (racemic) [Compound 119, Rac-N-[3-(2-tert-butyl-5-{2-[(1-{[1-(2-{6-[(3R)-2,6-dioxopiperidin-3-yl]-1,2,3,4-tetrahydroisoquinolin-2-yl}acetyl)piperidin-4-yl]methyl}-1H-pyrazol-4-yl)amino]pyrimidin-4-yl}-1,3-thiazol-4-yl)-2-fluorophenyl]propane-1-sulfonamide], for which the DC50 is less than 10 nM at BRAF V600E (setting [1]), more than 500 nM at BRAF G466V (setting [3]), more than 500 nM on BRAF G469A (setting [5]) and more than 500 nM at BRAF D594G (setting [7]). Besides, the Dmax on BRAF V600E (setting [2]) is more than 70%; on BRAF G466V (setting [4]) it was less than 30%; on BRAF G469A (setting [6]), less than 30%; on BRAF D594G (setting [8]), 30 to 70%.

On to `CCN(C)S(=O)(=O)Nc1cc(Cl)cc(-c2cn(-c3ccc(N4CCN(CC5CCN(c6ccc([C@H]7CCC(=O)NC7=O)cn6)CC5)CC4)cc3)nc2-c2ccncc2)c1F` [Compound 309, (3R)-3-(6-{4-[(4-{4-[4-(5-chloro-3-{[ethyl(methyl)sulfamoyl]amino}-2-fluorophenyl)-3-(pyridin-4-yl)-1H-pyrazol-1-yl]phenyl}piperazin-1-yl)methyl]piperidin-1-yl}pyridin-3-yl)piperidine-2,6-dione], for which the DC50 was less than 10 nM on BRAF V600E (setting [9]), less than 10 nM on BRAF G466V (setting [11]), 10 to 50 nM on BRAF G469A (setting [13]) and less than 10 nM on BRAF D594G (setting [15]). Moreover, the Dmax on BRAF V600E (setting [10]) is more than 70%; at BRAF G466V (setting [12]), more than 70%; on BRAF G469A (setting [14]) it was more than 70%; at BRAF D594G (setting [16]) it was 30 to 70%.

For the compound `C[C@@H]1CN(c2ccc(-n3cc(-c4cc(Cl)cc(NS(=O)(=O)N5CCCC5)c4F)c(-c4ccncc4)n3)nc2)CCN1CC1CCN(c2ccc(N3CCC(=O)NC3=O)cc2)CC1` [Compound 324, N-[5-chloro-3-(1-{5-[(3R)-4-({1-[4-(2,4-dioxo-1,3-diazinan-1-yl)phenyl]piperidin-4-yl}methyl)-3-methylpiperazin-1-yl]pyridin-2-yl}-3-(pyridin-4-yl)-1H-pyrazol-4-yl)-2-fluorophenyl]pyrrolidine-1-sulfonamide], the DC50 at BRAF V600E (setting [9]) was less than 10 nM; at BRAF G466V (setting [11]) it was less than 10 nM; on BRAF G469A (setting [13]) it was 50 to 500 nM; at BRAF D594G (setting [15]) it was less than 10 nM. Besides, the Dmax is more than 70% on BRAF V600E (setting [10]), 30 to 70% at BRAF G466V (setting [12]), 30 to 70% at BRAF G469A (setting [14]) and 30 to 70% at BRAF D594G (setting [16]).

Regarding `CCCS(=O)(=O)Nc1cccc(-c2nc(C3CCN(C(=O)C4CCN(C(=O)C5CCN(c6ccc(C7CCC(=O)NC7=O)cn6)CC5)CC4)CC3)sc2-c2ccnc(NC(C)C)n2)c1F` (racemic) [Compound 206, Rac-N-[3-(2-{1-[1-(1-{5-[(3R)-2,6-dioxopiperidin-3-yl]pyridin-2-yl}piperidine-4-carbonyl)piperidine-4-carbonyl]piperidin-4-yl}-5-{2-[(propan-2-yl)amino]pyrimidin-4-yl}-1,3-thiazol-4-yl)-2-fluorophenyl]propane-1-sulfonamide], the DC50 was less than 10 nM at BRAF V600E (setting [1]), 10 to 50 nM at BRAF G466V (setting [3]), more than 500 nM at BRAF G469A (setting [5]) and less than 10 nM at BRAF D594G (setting [7]). In addition, the Dmax is more than 70% at BRAF V600E (setting [2]), 30 to 70% on BRAF G466V (setting [4]), 30 to 70% at BRAF G469A (setting [6]) and 30 to 70% on BRAF D594G (setting [8]).

Turning to `C[C@@H]1CN(c2ccc(-n3cc(-c4cc(Cl)cc(NS(=O)(=O)N5CCCC5)c4F)c(-c4ccncc4)n3)nc2)CCN1CC1CCN(c2ccc([C@H]3CCC(=O)NC3=O)cn2)CC1` [Compound 325, N-[5-chloro-3-(1-{5-[(3R)-4-[(1-{5-[(3R)-2,6-dioxopiperidin-3-yl]pyridin-2-yl}piperidin-4-yl)methyl]-3-methylpiperazin-1-yl]pyridin-2-yl}-3-(pyridin-4-yl)-1H-pyrazol-4-yl)-2-fluorophenyl]pyrrolidine-1-sulfonamide], the DC50 was less than 10 nM at BRAF V600E (setting [9]), less than 10 nM at BRAF G466V (setting [11]), 10 to 50 nM on BRAF G469A (setting [13]) and less than 10 nM on BRAF D594G (setting [15]). Further, the Dmax on BRAF V600E (setting [10]), on BRAF G466V (setting [12]), at BRAF G469A (setting [14]) and on BRAF D594G (setting [16]) was more than 70% each time.

With `CCCS(=O)(=O)Nc1cccc(-c2nc(C3CCN(C(=O)C4CCN(CC5CCN(c6cccc7c6n(C)c(=O)n7C6CCC(=O)NC6=O)CC5)CC4)CC3)sc2-c2ccnc(N)n2)c1F` (racemic) [Compound 195, Rac-N-{3-[5-(2-aminopyrimidin-4-yl)-2-(1-{1-[(1-{1-[(3R)-2,6-dioxopiperidin-3-yl]-3-methyl-2-oxo-2,3-dihydro-1H-1,3-benzodiazol-4-yl}piperidin-4-yl)methyl]piperidine-4-carbonyl}piperidin-4-yl)-1,3-thiazol-4-yl]-2-fluorophenyl}propane-1-sulfonamide], the DC50 at BRAF V600E (setting [1]), at BRAF G466V (setting [3]), at BRAF G469A (setting [5]) and at BRAF D594G (setting [7]) was less than 10 nM each time. In addition, the Dmax at BRAF V600E (setting [2]) is more than 70%; at BRAF G466V (setting [4]), 30 to 70%; at BRAF G469A (setting [6]), 30 to 70%; on BRAF D594G (setting [8]), 30 to 70%.

`O=C1CC[C@H](c2ccc(N3CCC(CN4CCN(c5cc(F)c(-n6cc(-c7cc(Cl)cc(NS(=O)(=O)N8CCCC8)c7F)c(-c7ccncc7)n6)cc5F)CC4)CC3)cc2)C(=O)N1` [Compound 353, N-{5-chloro-3-[1-(4-{4-[(1-{4-[(3R)-2,6-dioxopiperidin-3-yl]phenyl}piperidin-4-yl)methyl]piperazin-1-yl}-2,5-difluorophenyl)-3-(pyridin-4-yl)-1H-pyrazol-4-yl]-2-fluorophenyl}pyrrolidine-1-sulfonamide]: the DC50 on BRAF V600E (setting [9]), at BRAF G466V (setting [11]), at BRAF G469A (setting [13]) and at BRAF D594G (setting [15]) was less than 10 nM throughout. Also, the Dmax on BRAF V600E (setting [10]), on BRAF G466V (setting [12]), on BRAF G469A (setting [14]) and at BRAF D594G (setting [16]) was more than 70% throughout.

For `CCCS(=O)(=O)Nc1cccc(-c2nc(C(C)(C)C3CCN(C(=O)C4CN(C5CCN(c6ccc7c(c6)C(=O)N(C6CCC(=O)NC6=O)C7=O)CC5)C4)CC3)sc2-c2ccnc(N)n2)c1F` (racemic) [Compound 243, Rac-N-{3-[5-(2-aminopyrimidin-4-yl)-2-(2-{1-[1-(1-{2-[(3R)-2,6-dioxopiperidin-3-yl]-1,3-dioxo-2,3-dihydro-1H-isoindol-5-yl}piperidin-4-yl)azetidine-3-carbonyl]piperidin-4-yl}propan-2-yl)-1,3-thiazol-4-yl]-2-fluorophenyl}propane-1-sulfonamide], the DC50 is 50 to 500 nM on BRAF V600E (setting [1]), more than 500 nM on BRAF G466V (setting [3]), more than 500 nM on BRAF G469A (setting [5]) and more than 500 nM at BRAF D594G (setting [7]). For the same compound, the Dmax on BRAF V600E (setting [2]) was 30 to 70%; on BRAF G466V (setting [4]) it was less than 30%; at BRAF G469A (setting [6]), less than 30%; at BRAF D594G (setting [8]) it was 30 to 70%.

As to `CCN(C)S(=O)(=O)Nc1cccc(-c2nc(C(C)(C)C)sc2-c2ccnc(Nc3ccc(N4CCN(C(=O)[C@H]5CC[C@H](CN6CCc7cc(C8CCC(=O)NC8=O)ccc7C6)CC5)CC4)cn3)n2)c1F` (mixture of isomers) [Compound 125, Rac-(3S)-3-(2-{[(1r,4r)-4-{4-[6-({4-[2-tert-butyl-4-(3-{[ethyl(methyl)sulfamoyl]amino}-2-fluorophenyl)-1,3-thiazol-5-yl]pyrimidin-2-yl}amino)pyridin-3-yl]piperazine-1-carbonyl}cyclohexyl]methyl}-1,2,3,4-tetrahydroisoquinolin-6-yl)piperidine-2,6-dione], the DC50 on BRAF V600E (setting [1]) is 10 to 50 nM; at BRAF G466V (setting [3]) it was more than 500 nM; at BRAF G469A (setting [5]) it was more than 500 nM; on BRAF D594G (setting [7]) it was more than 500 nM. Moreover, the Dmax at BRAF V600E (setting [2]) was more than 70%; on BRAF G466V (setting [4]) it was less than 30%; at BRAF G469A (setting [6]), 30 to 70%; at BRAF D594G (setting [8]), less than 30%.

For orientation: DC50 means the concentration giving 50% degradation. The low end stands for degradation at low concentration, the high end for degradation only at high concentration. As a reminder, the Dmax is the greatest extent of degradation seen. A higher Dmax goes with deep degradation.
